Data: patent US12552783B2, “Modulators of proteolysis and associated methods of use” (Arvinas Operations, Inc., priority 2018, dated 2026)

Target: KRas (Homo sapiens, UniProt P01116, G12C)
Assay: KRas degradation in NCI-H2030 cells by Western blot, normalized to GAPDH (data of Table 14)
Assay type: cell-based
Set-up: host or cells: NCI-H2030
Details: for Dmax: NCI-H2030
In short: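 After overnight adherence and 24 h without FBS, compounds added at 0.3, 1 or 3 μM (0.1% DMSO) for 24 h (VHL-based) or 72 h (others). Western blot of RIPA lysates, KRas signal over GAPDH relative to DMSO; DC50 and DMax derived, or <25% scored visually.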

Compound	Percent Degradation at Indicated Concentration (μM) (H2030, 0.3 μM)	Percent Degradation at Indicated Concentration (μM) (H2030, 1 μM)	Percent Degradation at Indicated Concentration (μM) (H2030, 3 μM)	Dmax [%]	further results
C=CC(=O)N1CCN(c2nc(NCCC(=O)N(C)CCNc3cccc4c3C(=O)N(C3CCC(=O)NC3=O)C4=O)nc3c(F)c(-c4c(O)cccc4F)c(Cl)cc23)CC1 [compound 108, 3-(((R)-4-(4-acryloylpiperazin-1-yl)-6-chloro-8-fluoro-7-(2-fluoro-6-hydroxyphenyl)quinazolin-2-yl)amino)-N-(2-((2-(2,6-dioxopiperidin-3-yl)-1,3-dioxoisoindolin-4-yl)amino)ethyl)-N-methylpropanamide]	C (Percent Degradation: C ≤ 35)	C (Percent Degradation: C ≤ 35)	C (Percent Degradation: C ≤ 35)	≤ 35	–
CCC(=O)N1CCN(c2nc(NCCC(=O)N(C)CCOCCOCCOCCOc3ccc4c(c3)CN(C3CCC(=O)NC3=O)C4=O)nc3c(F)c(-c4cc(O)cc5ccccc45)c(Cl)cc23)CC1 (stereo not shown) [compound 53, 3-((6-chloro-8-fluoro-7-(3-hydroxynaphthalen-1-yl)-4-(4-propionylpiperazin-1-yl)quinazolin-2-yl)amino)-N-(2-(2-(2-(2-((2-(2,6-dioxopiperidin-3-yl)-1-oxoisoindolin-5-yl)oxy)ethoxy)ethoxy)ethoxy)ethyl)-N-methylpropanamide]	–	–	–	–	Percent Degradation at Indicated Concentration (μM): 0.3 (H2030 cells, 0.3 μM): C (C ≤ 35); Percent Degradation at Indicated Concentration (μM): 1 (H2030 cells, 1 μM): C (C ≤ 35); Percent Degradation at Indicated Concentration (μM): 3 (H2030 cells, 3 μM): C (C ≤ 35); Dmax (H2030 cells): ≤ 35%
C=CC(=O)N1CCN(c2nc(NCCC(=O)N(C)CCOCCOCCOCC(=O)N[C@H](C(=O)N3C[C@H](O)C[C@H]3C(=O)N[C@@H](C)c3ccc(-c4scnc4C)cc3)C(C)(C)C)nc3c(F)c(-c4c(O)cccc4F)c(Cl)cc23)CC1 (atropisomer, axis not shown) [compound 210, (2S,4R)-1-((S)-18-((4-(4-acryloylpiperazin-1-yl)-6-chloro-8-fluoro-7-((R)-2-fluoro-6-hydroxyphenyl)quinazolin-2-yl)amino)-2-(tert-butyl)-15-methyl-4,16-dioxo-6,9,12-trioxa-3,15-diazaoctadecanoyl)-4-hydroxy-N-((S)-1-(4-(4-methylthiazol-5-yl)phenyl)ethyl)pyrrolidine-2-carboxamide]	C (Percent Degradation: C ≤ 35)	C (Percent Degradation: C ≤ 35)	C (Percent Degradation: C ≤ 35)	≤ 35	–
C=CC(=O)N1CCN(c2nc(O[C@H](C)CN3CCC(OCCOCCOCCOCCOc4ccc5c(c4)C(=O)N(C4CCC(=O)NC4=O)C5=O)CC3)nc3c2CCN(c2cc(O)cc4ccccc24)C3)CC1 (stereo partly drawn) [compound 419, 5-(2-(2-(2-(2-((1-((R)-2-((4-(4-acryloylpiperazin-1-yl)-7-(3-hydroxynaphthalen-1-yl)-5,6,7,8-tetrahydropyrido[3,4-d]pyrimidin-2-yl)oxy)propyl)piperidin-4-yl)oxy)ethoxy)ethoxy)ethoxy)ethoxy)-2-(2,6-dioxopiperidin-3-yl)isoindoline-1,3-dione]	–	–	–	–	Percent Degradation at Indicated Concentration (μM) (H2030 cells, 0.3 μM): C (Percent Degradation: C ≤ 35); Percent Degradation at Indicated Concentration (μM) (H2030 cells, 1 μM): C (Percent Degradation: C ≤ 35); Percent Degradation at Indicated Concentration (μM) (H2030 cells, 3 μM): C (Percent Degradation: C ≤ 35)
C=CC(=O)N1CCN(c2nc(NCCC(=O)N(C)CCOCC(=O)N[C@H](C(=O)N3C[C@H](O)C[C@H]3C(=O)N[C@@H](C)c3ccc(-c4scnc4C)cc3)C(C)(C)C)nc3c(F)c(-c4c(O)cccc4F)c(Cl)cc23)CC1 (atropisomer, axis not shown) [compound 206, (2S,4R)-1-((S)-2-(2-(2-(3-(((R)-4-(4-acryloylpiperazin-1-yl)-6-chloro-8-fluoro-7-(2-fluoro-6-hydroxyphenyl)quinazolin-2-yl)amino)-N-methylpropanamido)ethoxy)acetamido)-3,3-dimethylbutanoyl)-4-hydroxy-N-((S)-1-(4-(4-methylthiazol-5-yl)phenyl)ethyl)pyrrolidine-2-carboxamide]	C (Percent Degradation: C ≤ 35)	C (Percent Degradation: C ≤ 35)	C (Percent Degradation: C ≤ 35)	≤ 35	–
C=CC(=O)N1CCN(c2nc(NCCC(=O)N(C)CCOCCOCCOCCOCC(=O)N[C@H](C(=O)N3C[C@H](O)C[C@H]3C(=O)N[C@@H](C)c3ccc(-c4scnc4C)cc3)C(C)(C)C)nc3c(F)c(-c4c(O)cccc4F)c(Cl)cc23)CC1 (atropisomer, axis not shown) [compound 211, (2S,4R)-1-((S)-21-(((S)-4-(4-acryloylpiperazin-1-yl)-6-chloro-8-fluoro-7-(2-fluoro-6-hydroxyphenyl)quinazolin-2-yl)amino)-2-(tert-butyl)-18-methyl-4,19-dioxo-6,9,12,15-tetraoxa-3,18-diazahenicosanoyl)-4-hydroxy-N-((S)-1-(4-(4-methylthiazol-5-yl)phenyl)ethyl)pyrrolidine-2-carboxamide]	–	–	C (Percent Degradation: C ≤ 35)	–	–
C=CC(=O)N1CCN(c2nc(O[C@H](C)CN3CCC(OCCOCC(=O)N[C@H](C(=O)N4C[C@H](O)C[C@H]4C(=O)N[C@@H](C)c4ccc(-c5scnc5C)cc4)C(C)(C)C)CC3)nc3c2CCN(c2cc(O)cc4ccccc24)C3)CC1 [compound 406, (2S,4R)-1-((S)-2-(2-(2-((1-((R)-2-((4-(4-acryloylpiperazin-1-yl)-7-(3-hydroxynaphthalen-1-yl)-5,6,7,8-tetrahydropyrido[3,4-d]pyrimidin-2-yl)oxy)propyl)piperidin-4-yl)oxy)ethoxy)acetamido)-3,3-dimethylbutanoyl)-4-hydroxy-N-((S)-1-(4-(4-methylthiazol-5-yl)phenyl)ethyl)pyrrolidine-2-carboxamide]	–	–	–	–	Percent Degradation at Indicated Concentration (μM) (H2030 cells, 0.3 μM): C (Percent Degradation: C ≤ 35); Percent Degradation at Indicated Concentration (μM) (H2030 cells, 1 μM): C (Percent Degradation: C ≤ 35); Percent Degradation at Indicated Concentration (μM) (H2030 cells, 3 μM): C (Percent Degradation: C ≤ 35)
CCC(=O)N1CCN(c2nc(NCCC(=O)N(C)CCOCCOc3ccc4c(c3)CN(C3CCC(=O)NC3=O)C4=O)nc3c(F)c(-c4cc(O)cc5ccccc45)c(Cl)cc23)CC1 (stereo not shown) [compound 51, 3-((6-chloro-8-fluoro-7-(3-hydroxynaphthalen-1-yl)-4-(4-propionylpiperazin-1-yl)quinazolin-2-yl)amino)-N-(2-(2-((2-(2,6-dioxopiperidin-3-yl)-1-oxoisoindolin-5-yl)oxy)ethoxy)ethyl)-N-methylpropanamide]	–	–	–	–	Percent Degradation at Indicated Concentration (μM): 0.3 (H2030 cells, 0.3 μM): C (C ≤ 35); Percent Degradation at Indicated Concentration (μM): 1 (H2030 cells, 1 μM): C (C ≤ 35); Percent Degradation at Indicated Concentration (μM): 3 (H2030 cells, 3 μM): C (C ≤ 35); Dmax (H2030 cells): ≤ 35%
CC(=O)N1CCN(c2nc(NCCC(=O)N(C)CCOCCOCCOCC(=O)N[C@H](C(=O)N3C[C@H](O)C[C@H]3C(=O)N[C@@H](C)c3ccc(-c4scnc4C)cc3)C(C)(C)C)nc3c(F)c(-c4cc(O)cc5ccccc45)c(Cl)cc23)CC1 [compound 202, (2S,4R)-1-((2S)-18-((4-(4-acetylpiperazin-1-yl)-6-chloro-8-fluoro-7-(3-hydroxynaphthalen-1-yl)quinazolin-2-yl)amino)-2-(tert-butyl)-15-methyl-4,16-dioxo-6,9,12-trioxa-3,15-diazaoctadecanoyl)-4-hydroxy-N-((S)-1-(4-(4-methylthiazol-5-yl)phenyl)ethyl)pyrrolidine-2-carboxamide]	C (Percent Degradation: C ≤ 35)	C (Percent Degradation: C ≤ 35)	C (Percent Degradation: C ≤ 35)	≤ 35	–

Further lines, with some results ahead:

Percent Degradation at Indicated Concentration (μM) (H2030, 0.3 μM)	Percent Degradation at Indicated Concentration (μM) (H2030, 1 μM)	Percent Degradation at Indicated Concentration (μM) (H2030, 3 μM)	Dmax [%]	Compound	further results
C (Percent Degradation: C ≤ 35)	C (Percent Degradation: C ≤ 35)	C (Percent Degradation: C ≤ 35)	≤ 35	C=CC(=O)N1CCN(c2nc(OCCCN(C)CCOCCOCCOCCOCC(=O)N[C@H](C(=O)N3C[C@H](O)C[C@H]3C(=O)N[C@@H](C)c3ccc(-c4scnc4C)cc3)C(C)(C)C)nc3c(F)c(-c4cc(O)cc5ccccc45)c(Cl)cc23)CC1 [compound 497, (2S,4R)-1-((2S)-21-((4-(4-acryloylpiperazin-1-yl)-6-chloro-8-fluoro-7-(3-hydroxynaphthalen-1-yl)quinazolin-2-yl)oxy)-2-(tert-butyl)-18-methyl-4-oxo-6,9,12,15-tetraoxa-3,18-diazahenicosanoyl)-4-hydroxy-N-((S)-1-(4-(4-methylthiazol-5-yl)phenyl)ethyl)pyrrolidine-2 carboxamide]	–
C (Percent Degradation: C ≤ 35)	C (Percent Degradation: C ≤ 35)	C (Percent Degradation: C ≤ 35)	≤ 35	C=CC(=O)N1CCN(c2nc(Nc3ccc(OCCOCCOCCOCCOCC(=O)N[C@H](C(=O)N4C[C@H](O)C[C@H]4C(=O)N[C@@H](C)c4ccc(-c5scnc5C)cc4)C(C)(C)C)cc3)nc3c(F)c(-c4cc(O)cc5ccccc45)c(Cl)cc23)CC1 [compound 484]	–
C (Percent Degradation: C ≤ 35)	C (Percent Degradation: C ≤ 35)	C (Percent Degradation: C ≤ 35)	≤ 35	CN(CCOCCOCCOCCOc1ccc2c(c1)CN(C1CCC(=O)NC1=O)C2=O)C(=O)CCNc1nc(N2CCN(C(N)=O)CC2)c2cc(Cl)c(-c3cc(O)cc4ccccc34)c(F)c2n1 (stereo not shown) [compound 39, 4-(6-chloro-2-((1-((2-(2,6-dioxopiperidin-3-yl)-1-oxoisoindolin-5-yl)oxy)-12-methyl-13-oxo-3,6,9-trioxa-12-azapentadecan-15-yl)amino)-8-fluoro-7-(3-hydroxynaphthalen-1-yl)quinazolin-4-yl)piperazine-1-carboxamide]	–
